Experimental data taken from article doi:10.1101/2025.06.24.661388v1 (biorxiv, 2025).

Tests used:
[1] = biological target: T1, monoacylglycerol lipase (MAGL), human temporal cortex (Homo sapiens, UniProt Q99685); assay: saturation autoradiography on brain sections; conditions: labelled compound, [3H]T-401 […] min, room temperature
T1 sequence (Q99685 1-303): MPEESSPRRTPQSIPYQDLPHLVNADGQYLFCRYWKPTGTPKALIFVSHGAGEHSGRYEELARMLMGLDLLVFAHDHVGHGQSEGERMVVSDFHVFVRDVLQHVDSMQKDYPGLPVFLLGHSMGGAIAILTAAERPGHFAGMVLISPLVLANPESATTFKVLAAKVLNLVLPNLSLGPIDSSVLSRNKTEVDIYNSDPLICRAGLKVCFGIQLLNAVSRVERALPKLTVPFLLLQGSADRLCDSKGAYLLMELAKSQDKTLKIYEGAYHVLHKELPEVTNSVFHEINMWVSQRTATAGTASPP

[2] = biological target: T2, monoacylglycerol lipase (MAGL), mouse brain (Mus musculus, UniProt O35678); assay: saturation autoradiography on brain sections; conditions: labelled compound; [3H]T-401 […]; […] min; cerebral cortex
T2 sequence (O35678 1-303): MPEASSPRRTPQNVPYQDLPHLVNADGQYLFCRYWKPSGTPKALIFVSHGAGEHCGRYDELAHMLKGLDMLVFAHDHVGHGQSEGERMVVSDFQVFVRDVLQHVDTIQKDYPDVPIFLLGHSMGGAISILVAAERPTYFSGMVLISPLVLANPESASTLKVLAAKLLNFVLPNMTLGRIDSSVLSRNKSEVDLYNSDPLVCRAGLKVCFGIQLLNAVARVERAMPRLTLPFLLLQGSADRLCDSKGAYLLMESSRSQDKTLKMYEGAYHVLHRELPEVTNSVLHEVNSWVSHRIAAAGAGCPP

[3] = biological target: T2, monoacylglycerol lipase (MAGL), mouse brain; assay: displacement autoradiography on brain sections; conditions: unlabelled T-401 against […] [3H]T-401; hippocampus and cerebral cortex
[4] = biological target: T1, monoacylglycerol lipase (MAGL), human temporal cortex; assay: displacement autoradiography on brain sections; conditions: unlabelled T-401 against […] [3H]T-401, room temperature

Cc1ccnc(F)c1-c1cccc(N2C[C@H](N3CCN(C(=O)c4nccs4)CC3)CC2=O)c1 [T-401, (R)-1-(3-(2-fluoro-4-methylpyridin-3-yl)phenyl)-4-(4-(thiazole-2-carbonyl)piperazin-1-yl)pyrrolidine-2-one]
Kd [1]: 4.7 ± 0.8 nM | Kd [2]: 5.8 nM | IC50 [3]: 41 nM | IC50 [4]: 32 nM
